{
  "source": "patent US10173991B2",
  "about": "“Sulfone amide linked benzothiazole inhibitors of endothelial lipase” (BRISTOL-MYERS SQUIBB COMPANY, priority 2014, dated 2019)",
  "biological_target": "Endothelial lipase (EL) (Homo sapiens (Human), UniProt Q9Y5X9)",
  "sequence (Q9Y5X9 21-500)": "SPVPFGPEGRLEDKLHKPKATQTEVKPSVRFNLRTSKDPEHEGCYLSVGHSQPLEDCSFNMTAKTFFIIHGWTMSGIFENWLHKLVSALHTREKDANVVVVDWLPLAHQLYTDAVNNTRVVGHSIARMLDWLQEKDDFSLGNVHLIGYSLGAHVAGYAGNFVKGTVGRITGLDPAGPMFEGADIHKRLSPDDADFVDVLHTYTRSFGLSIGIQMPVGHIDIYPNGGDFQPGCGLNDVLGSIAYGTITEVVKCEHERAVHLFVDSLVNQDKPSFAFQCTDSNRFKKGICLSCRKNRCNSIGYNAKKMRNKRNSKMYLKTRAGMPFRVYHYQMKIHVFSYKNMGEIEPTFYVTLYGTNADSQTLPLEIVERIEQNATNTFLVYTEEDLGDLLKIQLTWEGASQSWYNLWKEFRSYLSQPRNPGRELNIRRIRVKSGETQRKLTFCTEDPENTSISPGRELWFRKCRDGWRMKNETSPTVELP",
  "assay": "Endothelial lipase (EL) enzymatic assay with fluorescent substrate A10070 in DMPG vesicles",
  "format": "biochemical",
  "procedure,_shortened": "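EL from conditioned medium of HT-1080 cells engineered to overexpress endogenous EL; HL partially purified from conditioned medium of HL-overexpressing COS cells. Enzyme preincubated with compound 30 min at 37° C in 50 mM HEPES pH 8.0, 50 mM NaCl, 1 mM CaCl2; DMPG vesicles carrying FRET substrate (0.11 mole fraction) then added.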",
  "data": [
    {"smiles": "O=C(CNC(=O)C(c1nc2ccc(-c3cncnc3)cc2s1)S(=O)(=O)N1CCOCC1)NC1CC1", "note": "(centres unmarked) [Example 481, N-[(cyclopropyl-carbamoyl)methyl]-2-(morpholine-4-sulfonyl)-2-[6-(pyrimidin-5-yl)-1,3-benzothiazol-2-yl]acetamide]", "values": [
      {"measurement": "IC50", "value": 99, "unit": "nM"}
    ]},
    {"smiles": "Cc1cc(-c2cc3sc(C(C(=O)NCC(=O)NC4CC4)S(=O)(=O)N4CCOCC4)nc3cc2F)cnn1", "note": "(centres unmarked) [Example 487, N-[(cyclopropyl-carbamoyl)methyl]-2-[5-fluoro-6-(6-methylpyridazin-4-yl)-1,3-benzothiazol-2-yl]-2-(morpholine-4-sulfonyl) acetamide]", "values": [
      {"measurement": "IC50", "value": 93, "unit": "nM"}
    ]},
    {"smiles": "COCCS(=O)(=O)C(C(=O)NCC(=O)NC1CC1)c1nc2cc(F)c(-c3ccc(C(=O)N4CCOCC4)cc3)cc2s1", "note": "(centres unmarked) [Example 161, N-[(cyclopropyl-carbamoyl)methyl]-2-{5-fluoro-6-[4-(morpholine-4-carbonyl)phenyl]-1,3-benzothiazol-2-yl}-2-(2-methoxyethane-sulfonyl) acetamide]", "values": [
      {"measurement": "IC50", "value": 14, "unit": "nM"}
    ]},
    {"smiles": "O=C(CNC(=O)C(c1nc2cc(F)c(-c3ccc(-n4cnnn4)cc3)cc2s1)S(=O)(=O)CCC(F)(F)F)NC1CC1", "note": "(centres unmarked) [Example 142, N-[(cyclopropyl-carbamoyl)methyl]-2-{5-fluoro-6-[4-(1H-1,2,3,4-tetrazol-1-yl)phenyl]-1,3-benzothiazol-2-yl}-2-(3,3,3-trifluoropropane-sulfonyl) acetamide]", "values": [
      {"measurement": "IC50", "value": 5, "unit": "nM"}
    ]},
    {"smiles": "CS(=O)(=O)C(C(=O)NCC(=O)NC1CC1)c1nc2cc(F)c(-c3ccc4c(c3)NC(=O)C4)cc2s1", "note": "(centres unmarked) [Example 372, N-[(cyclopropyl-carbamoyl)methyl]-2-[5-fluoro-6-(2-oxo-2,3-dihydro-1H-indol-6-yl)-1,3-benzothiazol-2-yl]-2-methanesulfonyl-acetamide]", "values": [
      {"measurement": "IC50", "value": 6, "unit": "nM"}
    ]},
    {"smiles": "COCCS(=O)(=O)C(C(=O)NCC(=O)NC1CC1)c1nc2ccc(-c3ccc4c(c3)COC4=O)cc2s1", "note": "(centres unmarked) [Example 341, N-[(cyclopropyl-carbamoyl)methyl]-2-(2-methoxyethane-sulfonyl)-2-[6-(1-oxo-1,3-dihydro-2-benzofuran-5-yl)-1,3-benzothiazol-2-yl]acetamide]", "values": [
      {"measurement": "IC50", "value": 11, "unit": "nM"}
    ]},
    {"smiles": "O=C(CNC(=O)C(c1nc2cc(F)c(-c3ccc(NC(=O)OCC4CC4)cc3)cc2s1)S(=O)(=O)CCC(F)(F)F)NC1CC1", "note": "(centres unmarked) [Example 531, cyclopropylmethyl N-{4-[2-({[(cyclopropyl-carbamoyl)methyl]carbamoyl}(3,3,3-trifluoropropane-sulfonyl)methyl)-5-fluoro-1,3-benzothiazol-6-yl]phenyl} carbamate]", "values": [
      {"measurement": "IC50", "value": 1, "unit": "nM"}
    ]},
    {"smiles": "CS(=O)(=O)Nc1ccc(-c2cc3sc(C(C(=O)NCC(=O)NC4CC4)S(=O)(=O)CCC(F)(F)F)nc3cc2F)cc1", "note": "(centres unmarked) [Example 43, N-[(cyclopropyl-carbamoyl)methyl]-2-[5-fluoro-6-(4-methanesulfon-amidophenyl)-1,3-benzothiazol-2-yl]-2-(3,3,3-trifluoropropane-sulfonyl) acetamide]", "values": [
      {"measurement": "IC50", "value": 37, "unit": "nM"}
    ]},
    {"smiles": "COCCNC(=O)CNC(=O)C(c1nc2ccc(-c3ccc(C(=O)NCCOC)cc3)cc2s1)S(=O)(=O)c1ccc(F)cc1", "note": "(centres unmarked) [Example 462, 4-{2-[(4-fluorobenzene-sulfonyl)({[(2-methoxyethyl)carbamoyl]methyl}carbamoyl)methyl]-1,3-benzothiazol-6-yl}-N-(2-methoxyethyl) benzamide]", "values": [
      {"measurement": "IC50", "value": 4, "unit": "nM"}
    ]},
    {"smiles": "CCCCCS(=O)(=O)C(C(=O)NCC(=O)NC1CC1)c1nc2cc(F)c(-c3ccc(NC(=O)OCc4ccccc4)cc3)cc2s1", "note": "(centres unmarked) [Example 48, benzyl N-{4-[2-({[(cyclopropyl-carbamoyl)methyl]carbamoyl} (pentane-1-sulfonyl)methyl)-5-fluoro-1,3-benzothiazol-6-yl]phenyl}carbamate]", "values": [
      {"measurement": "IC50", "value": 1, "unit": "nM"}
    ]},
    {"smiles": "COC(=O)Nc1ccc(-c2cc(Cl)c3nc(C(C(=O)NCC(=O)NC4CC4)S(C)(=O)=O)sc3c2)cc1", "note": "(centres unmarked) [Example 125, methyl N-{4-[4-chloro-2-({[(cyclopropyl-carbamoyl)methyl]carbamoyl} (methanesulfonyl)methyl)-1,3-benzothiazol-6-yl]phenyl} carbamate]", "values": [
      {"measurement": "IC50", "value": 2, "unit": "nM"}
    ]},
    {"smiles": "COCCOC(=O)Nc1ccc(-c2cc3sc(C(C(=O)NCC(=O)NC4CC4)S(=O)(=O)CCC(F)(F)F)nc3cc2F)cc1", "note": "(centres unmarked) [Example 534, 2-methoxyethyl N-{4-[2-({[(cyclopropyl-carbamoyl)methyl]carbamoyl}(3,3,3-trifluoropropane-sulfonyl)methyl)-5-fluoro-1,3-benzothiazol-6-yl]phenyl} carbamate]", "values": [
      {"measurement": "IC50", "value": 2, "unit": "nM"}
    ]},
    {"smiles": "COCCS(=O)(=O)C(C(=O)NCC(=O)NC1CC1)c1nc2ccc(-c3ccc(F)cc3)cc2s1", "note": "(centres unmarked) [Example 307, N-[(cyclopropyl-carbamoyl)methyl]-2-[6-(4-fluorophenyl)-1,3-benzothiazol-2-yl]-2-(2-methoxyethane-sulfonyl)acetamide]", "values": [
      {"measurement": "IC50", "value": 15, "unit": "nM"}
    ]},
    {"smiles": "Cc1cc2nc(C(C(=O)NCC(=O)NC3CC3)S(=O)(=O)C(C)C)sc2cc1-c1ccc(C#N)nc1", "note": "(centres unmarked) [Example 254, 2-[6-(6-cyanopyridin-3-yl)-5-methyl-1,3-benzothiazol-2-yl]-N-[(cyclopropyl-carbamoyl)methyl]-2-(propane-2-sulfonyl)acetamide]", "values": [
      {"measurement": "IC50", "value": 9, "unit": "nM"}
    ]},
    {"smiles": "Cc1ncc(-c2ccc3sc(C(C(=O)NCC(=O)NC4CC4)S(C)(=O)=O)nc3c2F)cn1", "note": "(centres unmarked) [Example 126, N-[(cyclopropyl-carbamoyl)methyl]-2-[4-fluoro-5-(2-methylpyrimidin-5-yl)-1,3-benzothiazol-2-yl]-2-methanesulfonyl-acetamide]", "values": [
      {"measurement": "IC50", "value": 137, "unit": "nM"}
    ]},
    {"smiles": "COCCNC(=O)c1ccc(-c2cc(F)c3nc(C(C(=O)NCC(=O)NC4CC4)S(=O)(=O)CCOC)sc3c2)cc1", "note": "(centres unmarked) [Example 218, 4-[2-({[(cyclopropyl-carbamoyl)methyl]carbamoyl}(2-methoxyethane-sulfonyl)methyl)-4-fluoro-1,3-benzothiazol-6-yl]-N-(2-methoxyethyl) benzamide]", "values": [
      {"measurement": "IC50", "value": 28, "unit": "nM"}
    ]},
    {"smiles": "COCCS(=O)(=O)C(C(=O)NCC(=O)NC1CC1)c1nc2cc(C(F)(F)F)c(-c3ccnn3C)cc2s1", "note": "(centres unmarked) [Example 162, N-[(cyclopropyl-carbamoyl)methyl]-2-(2-methoxyethane-sulfonyl)-2-[6-(1-methyl-1H-pyrazol-5-yl)-5-(trifluoromethyl)-1,3-benzothiazol-2-yl]acetamide]", "values": [
      {"measurement": "IC50", "value": 16, "unit": "nM"}
    ]},
    {"smiles": "CS(=O)(=O)C(C(=O)NCC(=O)NC1CC1)c1nc2cc(F)c(-c3ccc(NC(=O)CCc4ccccc4)cc3)cc2s1", "note": "(centres unmarked) [Example 576, N-{4-[2-({[(cyclopropyl-carbamoyl)methyl]carbamoyl} (methanesulfonyl)methyl)-5-fluoro-1,3-benzothiazol-6-yl]phenyl}-3-phenyl-propanamide]", "values": [
      {"measurement": "IC50", "value": 1, "unit": "nM"}
    ]},
    {"smiles": "O=C(CNC(=O)C(c1nc2cc(F)c(-c3ccc(-n4nc(C(F)(F)F)cc4C(=O)O)cc3)cc2s1)S(=O)(=O)CCC(F)(F)F)NC1CC1", "note": "(centres unmarked) [Example 588, 1-{4-[2-({[(cyclopropyl-carbamoyl)methyl]carbamoyl}(3,3,3-trifluoropropane-sulfonyl)methyl)-5-fluoro-1,3-benzothiazol-6-yl]phenyl}-3-(trifluoromethyl)-1H-pyrazole-5-carboxylic acid]", "values": [
      {"measurement": "IC50", "value": 6, "unit": "nM"}
    ]},
    {"smiles": "Cn1ccc(-c2ccc3sc(C(C(=O)NCC(=O)NC4CC4)S(=O)(=O)c4ccccc4)nc3c2)cc1=O", "note": "(centres unmarked) [Example 439, 2-(benzenesulfonyl)-N-[(cyclopropyl-carbamoyl)methyl]-2-[5-(1-methyl-2-oxo-1,2-dihydropyridin-4-yl)-1,3-benzothiazol-2-yl]acetamide]", "values": [
      {"measurement": "IC50", "value": 48, "unit": "nM"}
    ]}
  ]
}
